# In PubChem BioAssay AID2765 (Broad Institute, 2010):
# Active and inactive are the calls of the source.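 The calls were made as follows: active = half-maximal concentration for the rise in caspase light signal at or below ten times the top tested dose; inconclusive = flat fit between 30% and 70% activity, or unreliable curve fit; inactive = the rest.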
# Test system: MEF A1-2A-BIM cells, caspase 3/7 luminescence, 3 h
# Assay: inducers of caspase signal in A1-dependent MEFs – cell-based, luminescence, retest, A1 inhibitor project, dose response (AID 2765)
row,EC50,SMILES
1,> 35 µM (inactive),O=C(O)c1ccc2c(c1)C(=O)N(c1ccc(Cl)cn1)C2=O
2,> 35 µM (inactive),COC(=O)c1ccc(C(=O)OC)c(NC(=O)CSc2ccccn2)c1
3,> 35 µM (inactive),Cc1csc(NC(=O)c2cccc(S(=O)(=O)N3CCN(C)CC3)c2)n1
4,> 35 µM (inactive),Cc1ccc(C)c(NC(=O)CN(C)C(=O)c2ccc(-c3cccc(C(F)(F)F)c3)o2)c1
5,> 35 µM (inactive),COC(=O)c1ccc(NC(=O)C2CC(=O)N(c3ccc(C)cc3)C2)cc1 (stereo unspecified)
6,> 35 µM (inactive),CC(C)C(=O)n1nc(-c2cccnc2)nc1NCc1ccc(F)cc1
7,> 35 µM (inactive),O=C(CN1C(=O)NC2(CCCCCC2)C1=O)Nc1cccc(F)c1
8,> 35 µM (inactive),CCOc1cc2[nH]c(=S)n(CCCOC)c(=O)c2cc1OCC
9,> 35 µM (inactive),Cc1cc(C)cc(C(=O)N2CC(=O)Nc3ccccc32)c1
10,> 35 µM (inactive),O=C(c1cccc(F)c1F)N1CCCC1
11,12.6 µM,COC(=O)c1ccc2c(c1)C(C)(C)C(/C=C/c1ccccc1O)=[N+]2C
12,> 35 µM (inactive),Nc1nc(F)nc2c1ncn2[C@@H]1O[C@H](CO)[C@@H](O)[C@H]1O
13,> 35 µM (inactive),COc1ccccc1-c1cn[nH]c1-c1ccc(OCc2ccccc2)cc1O
14,> 35 µM (inactive),O=C(CCNc1n[nH]c(=O)[nH]c1=O)N/N=C/c1ccc(C(F)(F)F)cc1
15,> 35 µM (inactive),O=C(NCC1CCCO1)C1CCN(S(=O)(=O)c2ccc(Br)cc2)CC1 (stereo unspecified)
16,> 35 µM (inactive),O=Cc1cccc(OC(=O)c2ccc(Cl)cc2Cl)c1
17,5.77 µM,COc1ccc(C=C2C=C(C(C)(C)C)C(=O)C(C(C)(C)C)=C2)cc1OC
18,> 35 µM (inactive),NCCCC[C@H](N[C@@H](CCc1ccccc1)C(=O)O)C(=O)N1CCC[C@H]1C(=O)O
19,> 35 µM (inactive),C[C@H](NC(=O)OC(C)(C)C)C(=O)NCC1CCC(C(=O)N[C@@H](Cc2ccccc2)C(=O)O)CC1 (stereo partly specified)
20,> 35 µM (inactive),C[C@H](CO)N1C[C@H](C)[C@@H](CN(C)CC2CCCCC2)Oc2c(NS(=O)(=O)c3cccs3)cccc2C1=O
21,> 35 µM (inactive),Cc1ccn(C(=O)c2ccc(NC(=O)C3CCCCC3)cc2)n1
